US20250177547A1, “PSMA-STEAP1 DUAL VARIABLE DOMAIN IMMUNOGLOBLIN (DVD-Ig) MOLECULES AND DRUG CONJUGATES” (AbbVie Inc., priority 2023, published 2025)
Where “and” joins values, the source holds several entries; their conditions need not be identical. Equal values may be shown once.

How the values were obtained:
[1] = test system: LNCaP.FGC cells; assay: In vitro cytotoxicity of MMAE conjugates (CellTiter-Glo), LNCaP.FGC; conditions: read-out: LNCaP.FGC IC50, 7 days
[2] = test system: HEK293-PSMA cells; assay: In vitro cytotoxicity of MMAE conjugates (CellTiter-Glo), HEK293-PSMA; conditions: read-out: HEK293-PSMA IC50, 7 days, CellTiter-Glo

With PSMA the IC50 [1] was 150 pM and 100 pM and the IC50 [2] was 70 pM and 60 pM.
